One assay has as its system SMMC-7721 cells. Description: MTT cytotoxic assay, SMMC-7721. The class given is cell-based. Conditions: Homo sapiens, 72 h. The protocol:
(§1) Human breast cancer cell line (MDA-MB-231), cervical carcinoma cell line (HeLa), the liver cancer cell line (SMMC-7721) and normal hepatocyte cell line (QSG-7701) were maintained in Dulbecco Modified Eagle Medium (DMEM) containing 4.0 mM L-Glutamine and 4500 mg/L Glucose supplemented with 10% (v/v) foetal bovine serum (FBS) and 100 U/mL penicillin/streptomycin at 37 °C in humidified atmosphere of 5% CO2 and 95% air.
(§2) Exponentially growing MDA-MB-231, Hela and SMMC-7721 cell lines were seeded into 96-well plate for 100 μL and treated with different concentrations of the synthetic compounds for 72 h, and then 10 μL of MTT (10 mg/mL) was added and incubation for 3 ∼ 4 h at 37 °C. The generated purple formazan crystals from viable can be dissolved by adding 100 μL DMSO. The plates were swirled gently for 5 min and quantified by measuring the OD of the plates at the wavelength of 540 nm. Each concentration was repeated in three wells and the same experimental condition was provided for all compounds. The results were expressed as IC50 values with standard deviations, which was defined as the concentration at which 50% survival of cells was discerned. Etoposide was co-assayed as positive control.
(§3) The in vitro cytotoxic activity of derivatives 3a–d, 4a–h, 5a–h, and 6a–h were evaluated by MTT assay against human breast cancer cell line (MDA-MB-231), cervical carcinoma cell line (HeLa), hepatocarcinoma cell line (SMMC-7721) and human normal hepatocyte cell line (QSG-7701). The anticancer drug etoposide was co-assayed as the positive control. All tested compounds were dissolved in DMSO and the stock solutions were diluted by DMEM medium before treatment of the cultured cells.

For another assay, the system named is HeLa cells. Description: Cell cycle analysis (PI staining, flow cytometry). The class given is cell-based, human. Conditions: 0.2 μM, 48 h. The protocol:
Cell cycle distributions in HeLa cells were determined through PI staining and analysed by flow cytometry. HeLa cells were seeded into a six-well plate at 5 × 10^5 cell/mL and treated with different concentrations of compound 4d for 48 h. After treatment, cells were detached with 0.25% trypsin, harvested by centrifugation, washed twice with ice-cold PBS and then fixed and permeabilised with ice-cold 70% ethanol at 4 °C overnight. Ethanol was removed and the cells were washed twice with ice-cold PBS. After this, the cells were treated with 100 μL of RNase (100 μg/mL) at 37 °C for 30 min, followed by incubation with 400 μL of DNA staining solution propidium iodide (PI) (1 mg/mL) in the dark at 4 °C for 30 min. The samples were analysed by a flow cytometer (Becton-Dickinson FACSCalibur, Totowa, NJ, USA) and data were analysed using the FlowJo software (Becton-Dickinson & Co, Totowa, NJ, USA).
Cell cycle distribution in HeLa cells was examined to determine whether or not compound 4d inhibited the proliferation of these cells through cell cycle arrest. HeLa cells were treated with different concentrations of compound 4d (0, 0.05, 0.1, and 0.2 μM) for 48 h. Cell cycle distribution was investigated by flow cytometric analysis after staining the DNA of the treated cells by PI. […] This phenomenon was accompanied by a decrease in the population of cells in G2/M phase.
For orientation: Flow cytometry measures light scatter and fluorescence of single cells or particles in a stream.

Assay [1] concerns p90RSK, p-p90RSK, BAD, BIM in HeLa cells. Description: Western blot of downstream proteins of ERK. Particulars: 0.05, 0.1, 0.2 μM, 48 h. In kind it is cell-based, human. The protocol:
(§4) HeLa cells were seeded at a density of 5 × 10^6 cells per well and attached for 8 h, and then treated with different concentrations of compound 4d for 48 h. After the treatment, the cells were harvested and washed twice with PBS. The harvested cells were lysed with radio-immunoprecipitation assay (RIPA) lysis buffer (Beyotime Biotech., Nantong, China) with 1% cocktail (Sigma-Aldrich, St. Louis, MO, USA). Whole-cell protein lysates were prepared and centrifuged at 12,000 rpm for 10 min at 4 °C. The total proteins were determined using Bradford reagent (Bio-Rad Laboratories, Inc., Hercules, CA, USA). Exactly 40 μg of protein per lane was separated through sodium dodecyl sulphate-polyacrylamide gel electrophoresis and then transferred onto a polyvinylidene difluoride membrane (Millipore, Bedford, MA, USA). The membranes were incubated with each antibody and detected through immunoblot analysis. All of the antibodies were purchased from Cell signalling Technology, Inc. (Boston, MA, USA) and diluted in accordance with the manufacturer’s instruction. Proteins were visualised using a C-Digit® imaging system (LI-COR, Lincoln, NE, USA).
In addition, the effect of compound 4d on the downstream proteins of ERK (p90RSK, BAD, and BIM) was also investigated by western blot analysis. It is known that activated ERK1/2 (p-ERK1/2) directly phosphorylates and activates p90RSK, which subsequently decreases the level of pro-apoptotic BH3-only proteins BIM and BAD and inhibits their apoptosis-promoting activity.
Background: In western blotting, separated proteins are transferred to a membrane and probed.

The subject of assay [2] is ERK1/2 and pERK1/2 in HeLa cells. Description: Western blot of ERK and pERK. Particulars: 48 h. In kind it is cell-based, human. The protocol: as §4
Subsequently, to evaluate the MEK inhibition of compound 4d in cancer cells, western blot analyses were also carried out to evaluate the expression levels of ERK and phosphorylated ERK (pERK) proteins in compound 4d-treated HeLa cells.

The subject of assay [3] is Cytochrome c, Bax, Bcl-2, Caspase-3, Caspase-9 in HeLa cells. Description: Western blot of mitochondrial apoptosis markers. Conditions: 0.1 and 0.2 μM, 48 h. In kind it is cell-based, human. The protocol:
as §4
To further explore whether compound 4d induced apoptosis via the mitochondrial signalling pathway, a number of key protein markers involved in mitochondria-mediated apoptosis were examined by Western blot analysis. The Bcl-2 family members are important regulators of the mitochondrial apoptotic pathway. Two most important members of Bcl-2 family, the anti-apoptotic protein Bcl-2 and the pro-apoptotic protein Bax, are key regulators of this progress. As shown in Figure 6(a), the expression level of Bax was elevated in HeLa cells compared with the control group, whereas the expression level of Bcl-2 was decreased after treatment with compound 4d for 48 h. […] Moreover, cytochrome c is reported as a key protein involved in the activation of the downstream caspases that trigger apoptosis. Caspases are a family of cysteinyl aspartate-specific proteases involved in apoptosis, which can be classified into groups of initiators (caspases 8, 9, and 10) and executioners (caspases 3, 6, and 7)[48]^,[49]. In this assay, we also examined the roles of cytochrome c, caspase-3, and caspase-9 in the cellular response to compound 4d.

The subject of another assay is QSG-7701 cells. Description: MTT cytotoxic assay, normal hepatocyte QSG-7701. In kind it is cell-based, human. The protocol: as §1, §2, §3
For orientation: Formazan colour is commonly taken as a measure of viable cells.

We go through one compound from PMC6522941, “Design, synthesis, and anticancer evaluation of novel quinoline derivatives of ursolic acid with hydrazide, oxadiazole, and thiadiazole moieties as potent MEK inhibitors” (Journal of Enzyme Inhibition and Medicinal Chemistry, 2019).

In the case of `CC(=O)NNC(=O)C12CCC(C)C(C)C1C1=CCC3C4(C)Cc5cc6cc(Cl)ccc6nc5C(C)(C)C4CCC3(C)C1(C)CC2` (centres unmarked) [Compound 4d, N-[5′-chloro-ursa-12-en-(2,3)-quinoline-28-oyl]-acetohydrazide], the concentration for half-maximal inhibition (IC50) (as a rule, the concentration needed to halve the response being measured) with SMMC-7721 cells is 0.34 ± 0.03 µM. Moreover, in the assay with HeLa cells (control 25.95), the “population of cells in G2/M phase” value came out at 8.51%. The “population of cells in G0/G1 phase” value in the assay on HeLa cells (control 48.32) was 63.75%. In assay [1], the “expression level of p90RSK” value is given as “significantly decreased”, the “expression level of p-p90RSK” value is recorded as “significantly decreased”, the “level of BAD” value is recorded as “upregulated” and the “level of BIM” value is recorded as “upregulated”. Besides, in assay [2] (0.05 μM), the “expression level of pERK1/2, % of the control group” value was determined as 74.7%. Moreover, the “expression level of pERK1/2, % of the control group” value in assay [2] (0.1 μM) is 41.3%. For the same compound, the “expression level of pERK1/2, % of the control group” value in assay [2] (0.2 μM) worked out at 29.5%. In assay [2] (0.05, 0.1, 0.2 μM), the “expression levels of ERK1/2” value is “slightly decreased” and the “expression levels of pERK1/2” value is “significantly downregulated”. In addition, in assay [3], the “level of caspase-3” value is on record as “significantly increased”, the “level of caspase-9” value is on record as “significantly increased” and the “ratio of Bax/Bcl-2” value is reported as “increased in a dose-dependent manner”. In assay [3] (compared with control), the “expression level of Bax” value is “elevated” and the “expression level of Bcl-2” value was “decreased”. Further, in assay [3] (cytosol), the “level of cytochrome c” value is “significantly increased”. The compound also displayed an IC50 in the assay with QSG-7701 cells (Homo sapiens, QSG7701, MTT, normal hepatocyte cell line) of 10.8 ± 0.72 µM. The compound also came in with a Selectivity in the assay on QSG-7701 cells (IC50 (QSG-7701)/IC50 (HeLa)) of 134.5.
